These results are taken from patent US8084621B2, “3-Pyrrolo[b]cyclohexylene-2-dihydroindolinone derivatives and uses thereof” (Jiangsu Simcere Pharmaceutical R&D Co. Ltd., priority 2006, dated 2011).

In the experiment the target is T1, c-Kit (Homo sapiens, UniProt P10721).
T1 construct: purchased Cell Signaling Technology CO
T1 sequence (P10721 26-976): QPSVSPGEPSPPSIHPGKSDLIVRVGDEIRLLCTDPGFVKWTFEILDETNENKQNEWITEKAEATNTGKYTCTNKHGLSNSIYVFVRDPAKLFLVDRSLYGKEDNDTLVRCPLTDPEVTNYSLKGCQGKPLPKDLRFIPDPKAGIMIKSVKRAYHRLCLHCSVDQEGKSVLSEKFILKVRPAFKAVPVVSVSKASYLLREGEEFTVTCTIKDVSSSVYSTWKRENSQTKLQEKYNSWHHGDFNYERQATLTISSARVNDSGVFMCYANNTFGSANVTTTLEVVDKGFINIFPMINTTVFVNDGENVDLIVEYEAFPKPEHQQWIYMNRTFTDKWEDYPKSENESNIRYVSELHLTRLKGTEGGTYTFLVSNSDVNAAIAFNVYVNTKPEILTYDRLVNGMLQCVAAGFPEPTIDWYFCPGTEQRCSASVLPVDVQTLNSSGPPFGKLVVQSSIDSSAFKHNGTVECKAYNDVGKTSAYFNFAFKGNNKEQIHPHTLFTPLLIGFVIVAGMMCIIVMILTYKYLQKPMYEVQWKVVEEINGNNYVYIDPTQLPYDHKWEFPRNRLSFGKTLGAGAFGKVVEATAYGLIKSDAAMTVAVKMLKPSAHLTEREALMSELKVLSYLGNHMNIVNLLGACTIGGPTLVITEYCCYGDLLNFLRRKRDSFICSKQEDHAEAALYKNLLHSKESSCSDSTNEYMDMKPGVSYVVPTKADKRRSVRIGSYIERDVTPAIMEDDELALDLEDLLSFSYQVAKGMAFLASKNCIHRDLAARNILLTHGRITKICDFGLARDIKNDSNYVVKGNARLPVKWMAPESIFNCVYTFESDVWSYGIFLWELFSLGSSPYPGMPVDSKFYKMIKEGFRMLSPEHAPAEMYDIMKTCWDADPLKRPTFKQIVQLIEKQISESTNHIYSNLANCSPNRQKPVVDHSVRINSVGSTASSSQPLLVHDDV
The experiment in a line: Protein kinase activity by ELISA in vitro, c-Kit. The class given is biochemical. The settings on record: concentration of 10^−7 mol/L; read-out: kinase inhibition ratio, c-Kit.
Excerpt: (§1) An ELISA (Enzyme-Linked Immunosorbent Sandwich Assay) procedure may be used to detect and measure the level of protein tyrosine kinase activity. Tyrosine kinases such as VEGFR-2, PDGFR-β and c-Kit etc. catalyze the phosphorylation reaction of ATP and biotin-labeled peptide substrate, which will be ceased when the kinase activity is inhibited. According to the principle of ELISA, a monoclonal antibody can react with phosphorylated substrate specially, so biotin-labeled substrate is binded to streptavidin-coated ELISA plate, and then binded to a HRP-labeled goat anti-mouse antibody. Finally TMB is added for a color reaction and the value of A450-A630 is read by ELISA plate reader. The OD value can reflect the inhibitory activity of the VEGFR-2, PDGFR-β, c-Kit tyrosine kinases etc. treated with the test compounds at the different concentrations. So, the assay may be used to measure the inhibition ratio of the compounds for the tyrosine kinase activity. Similar assays can be designed along the same lines for any PK using techniques well known in the art.
as §1, with “Tyrosine” for “An ELISA (Enzyme-Linked Immunosorbent Sandwich Assay) procedure may be used to detect and measure the level of protein tyrosine kinase activity. Tyrosine”, “PDGFR-β” for “PDGFR-β,”, “kinases” for “kinases etc.”
VEGF Receptor 2, PDGF Receptor-beta and c-kit kinase assay kit (include kinase, 1.25M DTT, substrate peptide, 10 mM ATP, P-Tyr-100 Mouse antibody, 4×HTScan tyrosine kinase buffer), Cell Signaling Technology CO.; HRP labeled goat anti mouse IgG, Protein Tech CO.; TMB, Pierce CO.; Streptavidin Microtitration Plate, Greiner Bio-one CO.; Infinite M200 Reader, Tecan CO.
1.2.1 Immediately transfer enzyme from −80° C. to ice. Allow enzyme to thaw on ice then at 4° C. and centrifugate transiently to the bottom of centrifuge tube, then lay back on ice quickly
1.2.2 Add 10 μl of DTT (1.25 M) to 2.5 ml of 4×HTScan tyrosine kinase buffer (240 mM HEPES pH 7.5, 20 mM MgCl2, 20 mM MnCl2, 12 μM Na3VO4). Transfer 0.6 ml of DTT/Kinase buffer to each enzyme tube to make 4× reaction Cocktail. Incubate 12.5 μl of the 4× reaction cocktail with 12.5 μl/well prediluted compound of interest for 5 minutes at room temperature, and set blank control, free-enzyme control, negative control and positive control. 1.2.3 Add 10 μl 10 mM ATP to 1.25 ml 6 μM substrate peptide. Dilute the mixture with dH20 to 2.5 ml to make 2×ATP/substrate cocktail. Add 25 μl of 2×ATP/substrate cocktail to 25 μl/well preincubated reaction cocktail/compound. Incubate reaction plate at room temperature for 30 minutes. 1.2.4 Add 50 μl/well stop Buffer (50 mM EDTA, pH 8) to stop the reaction. Transfer 25 μl of each reaction and 75 μl dH2O/well to a 96-well streptavidin coated plate and incubate at room temperature for 60 minutes. Wash three times with 200 μl/well PBS/T(1×PBS, 0.05% Tween-20). 1.2.5 Dilute primary antibody, Phospho-Tyrosine mAb (P-Tyr-100), 1:500 in PBS/T with 1% BSA. Add 100 μl/well primary antibody. Incubate at room temperature for 60 minutes. Wash three times with 200 μl/well PBS/T(1×PBS, 0.05% Tween-20). 1.2.6 Prepare appropriate dilution of HRP labeled secondary antibody, 1:500 in PBS/T with 1% BSA. Add 100 μl/well secondary antibody solution. Incubate at room temperature for 30 minutes. […]
A general note: In an ELISA, binding on a coated surface is turned into a signal by an enzyme label.
For the molecule `Cc1[nH]c2c(c1C(=O)NCCCN(C)C)CCC/C2=C1/C(=O)Nc2ccc(Cl)cc21` [I-7, N-(3-(dimethylamino)propyl)-2-methyl-7-[1,2-dihydro-5-chloro-2-oxo-3H-indol-(Z)-3-ylidene]-4,5,6,7-tetrahydro-1H-indole-3-carboxamide], the inhibition at 0.1 µM is 74%. In the case of `CCN(CC)CCNC(=O)c1c(C)[nH]c2c1CCC/C2=C1/C(=O)Nc2ccc(C)cc21` [I-4, N-(2-(diethylamino)ethyl)-2-methyl-7-[1,2-dihydro-5-methyl-2-oxo-3H-indol-(Z)-3-ylidene]-4,5,6,7-tetrahydro-1H-indole-3-carboxamide] it was 60%; in that of `CCN(CC)CCNC(=O)c1c(C)[nH]c2c1CCC/C2=C1/C(=O)Nc2ccc(Cl)cc21` [I-3, N-(2-(diethylamino)ethyl)-2-methyl-7-[1,2-dihydro-5-chloro-2-oxo-3H-indol-(Z)-3-ylidene]-4,5,6,7-tetrahydro-1H-indole-3-carboxamide], 43%; in that of `CCN(CC)CCNC(=O)c1c(C)[nH]c2c1CCC/C2=C1/C(=O)Nc2ccc(F)cc21` [I-2, N-(2-(diethylamino)ethyl)-2-methyl-7-[1,2-dihydro-5-fluoro-2-oxo-3H-indol-(Z)-3-ylidene]-4,5,6,7-tetrahydro-1H-indole-3-carboxamide], 46%. The result for `CCN(CC)CCNC(=O)c1c(C)[nH]c2c1CCC/C2=C1/C(=O)Nc2ccccc21` [I-5, N-(2-(diethylamino)ethyl)-2-methyl-7-[1,2-dihydro-2-oxo-3H-indol-(Z)-3-ylidene]-4,5,6,7-tetrahydro-1H-indole-3-carboxamide] reads 67%. In the case of `Cc1[nH]c2c(c1C(=O)NCC(O)CN1CCCC1)CCC/C2=C1/C(=O)Nc2ccccc21` (stereo not drawn) [I-70, N-(2-hydroxy-3-(pyrrolidin-1-yl)propyl)-2-methyl-7-[1,2-dihydro-2-oxo-3H-indol-(Z)-3-ylidene]-4,5,6,7-tetrahydro-1H-indole-3-carboxamide] it was 76%; in that of `CCN(CC)CC(O)CNC(=O)c1c(C)[nH]c2c1CCC/C2=C1/C(=O)Nc2ccccc21` (stereo not drawn) [I-63, N-(3-(diethylamino)-2-hydroxypropyl)-2-methyl-7-[1,2-dihydro-2-oxo-3H-indol-(Z)-3-ylidene]-4,5,6,7-tetrahydro-1H-indole-3-carboxamide], 73%; in that of `Cc1[nH]c2c(c1C(=O)NCCO)CCC/C2=C1/C(=O)Nc2ccccc21` [I-8, N-(2-hydroxyethyl)-2-methyl-7-[1,2-dihydro-2-oxo-3H-indol-(Z)-3-ylidene]-4,5,6,7-tetrahydro-1H-indole-3-carboxamide], 77%.

Regarding `Cc1[nH]c2c(c1C(=O)NCCN(C)C)CCC/C2=C1/C(=O)Nc2ccc(F)cc21` [I-6, N-(2-(dimethylamino)ethyl)-2-methyl-7-[1,2-dihydro-5-fluoro-2-oxo-3H-indol-(Z)-3-ylidene]-4,5,6,7-tetrahydro-1H-indole-3-carboxamide], the inhibition at 0.1 µM is 77%.
